Assay results from patent US7118895B2, “Process for producing aglycon by using diglycosidase and flavor-improved food containing the aglycon and converting agent to be used in the process” (Amano Enzyme Inc., priority 2000, dated 2006).

What was measured:
[1] = system: Crude diglycosidase; test: Examination of substrate concentration in the conversion into isoflavone aglycons by diglycosidase using soybean materials; format: biochemical, Penicillium multicolor IAM7153;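 note: percent of the isoflavone family total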
Outline: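 Soybean materials (roasted soy flour, soymilk, defatted soybean, concentrated soy protein) at 2–30% (w/v) in 20 mM acetate pH 4.0 were reacted with crude diglycosidase at 55° C with shaking; enzyme solution added was 1.88 AU/mL. Samples taken at 0, 1, 3 and 6 h were ethanol-extracted and analyzed by HPLC.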

[2] = system: Diglycosidase derived from P. multicolor; test: Reactivity toward various isoflavone glycosides (HPLC); format: biochemical, Penicillium multicolor; parameters: glucoside / aglycon: unit not given here; settings: 55 °C, pH 4.0
Outline: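 Enzymes at 0.75 AU/mL in pH 4.0 acetate buffer were reacted at 55° C with individual isoflavone glycosides (substrate stock 2 mM in methanol) in 20 mM acetate pH 4.0. Aglycone release followed at 0, 1, 3 and 6 h: ethanol-quenched, ODS HPLC with UV 260 nm, quantified against calibration curves.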

## COc1cc2c(=O)c(-c3ccc(O)cc3)coc2cc1O[C@@H]1O[C@H](COC(=O)CC(=O)O)[C@@H](O)[C@H](O)[C@H]1O [malonylglycitin, 6″-O-malonylglycitin]
[1]; roasted soy flour, substrate concentration 5%, heat treatment of enzyme no, reaction time 0 h
  Decomposition efficiency: ratio of each glycoside/aglycon within its isoflavone family: not detected
[1]; roasted soy flour, substrate concentration 5%, heat treatment of enzyme no, reaction time 1 h
  Decomposition efficiency: ratio of each glycoside/aglycon within its isoflavone family: not detected
[1]; roasted soy flour, substrate concentration 5%, heat treatment of enzyme no, reaction time 3 h
  Decomposition efficiency: ratio of each glycoside/aglycon within its isoflavone family: not detected
[1]; roasted soy flour, substrate concentration 5%, heat treatment of enzyme no, reaction time 6 h
  Decomposition efficiency: ratio of each glycoside/aglycon within its isoflavone family: not detected
[1]; roasted soy flour, substrate concentration 5%, heat treatment of enzyme yes, reaction time 6 h
  Decomposition efficiency: ratio of each glycoside/aglycon within its isoflavone family: not detected
[1]; roasted soy flour, substrate concentration 10%, heat treatment of enzyme no, reaction time 0 h
  Decomposition efficiency: ratio of each glycoside/aglycon within its isoflavone family: not detected
[1]; roasted soy flour, substrate concentration 10%, heat treatment of enzyme no, reaction time 1 h
  Decomposition efficiency: ratio of each glycoside/aglycon within its isoflavone family: not detected
[1]; roasted soy flour, substrate concentration 10%, heat treatment of enzyme no, reaction time 3 h
  Decomposition efficiency: ratio of each glycoside/aglycon within its isoflavone family: not detected
[1]; roasted soy flour, substrate concentration 10%, heat treatment of enzyme no, reaction time 6 h
  Decomposition efficiency: ratio of each glycoside/aglycon within its isoflavone family: not detected
[1]; roasted soy flour, substrate concentration 10%, heat treatment of enzyme yes, reaction time 6 h
  Decomposition efficiency: ratio of each glycoside/aglycon within its isoflavone family: not detected
[1]; roasted soy flour, substrate concentration 20%, heat treatment of enzyme no, reaction time 0 h
  Decomposition efficiency: ratio of each glycoside/aglycon within its isoflavone family: not detected
[1]; roasted soy flour, substrate concentration 20%, heat treatment of enzyme no, reaction time 1 h
  Decomposition efficiency: ratio of each glycoside/aglycon within its isoflavone family: not detected
[1]; roasted soy flour, substrate concentration 20%, heat treatment of enzyme no, reaction time 3 h
  Decomposition efficiency: ratio of each glycoside/aglycon within its isoflavone family: not detected
[1]; roasted soy flour, substrate concentration 20%, heat treatment of enzyme no, reaction time 6 h
  Decomposition efficiency: ratio of each glycoside/aglycon within its isoflavone family: not detected
[1]; roasted soy flour, substrate concentration 20%, heat treatment of enzyme yes, reaction time 6 h
  Decomposition efficiency: ratio of each glycoside/aglycon within its isoflavone family: not detected
[1]; roasted soy flour, substrate concentration 30%, heat treatment of enzyme no, reaction time 0 h
  Decomposition efficiency: ratio of each glycoside/aglycon within its isoflavone family: not detected
[1]; roasted soy flour, substrate concentration 30%, heat treatment of enzyme no, reaction time 1 h
  Decomposition efficiency: ratio of each glycoside/aglycon within its isoflavone family: not detected
[1]; roasted soy flour, substrate concentration 30%, heat treatment of enzyme no, reaction time 3 h
  Decomposition efficiency: ratio of each glycoside/aglycon within its isoflavone family: not detected
[1]; roasted soy flour, substrate concentration 30%, heat treatment of enzyme no, reaction time 6 h
  Decomposition efficiency: ratio of each glycoside/aglycon within its isoflavone family: not detected
[1]; roasted soy flour, substrate concentration 30%, heat treatment of enzyme yes, reaction time 6 h
  Decomposition efficiency: ratio of each glycoside/aglycon within its isoflavone family: not detected
[1]; soymilk, substrate concentration 2%, heat treatment of enzyme no, reaction time 0 h
  Decomposition efficiency: ratio of each glycoside/aglycon within its isoflavone family: 28.2%
[1]; soymilk, substrate concentration 2%, heat treatment of enzyme no, reaction time 1 h
  Decomposition efficiency: ratio of each glycoside/aglycon within its isoflavone family: not detected
[1]; soymilk, substrate concentration 2%, heat treatment of enzyme no, reaction time 3 h
  Decomposition efficiency: ratio of each glycoside/aglycon within its isoflavone family: not detected
[1]; soymilk, substrate concentration 2%, heat treatment of enzyme no, reaction time 6 h
  Decomposition efficiency: ratio of each glycoside/aglycon within its isoflavone family: not detected
[1]; soymilk, substrate concentration 2%, heat treatment of enzyme yes, reaction time 6 h
  Decomposition efficiency: ratio of each glycoside/aglycon within its isoflavone family: 48.2%
[1]; soymilk, substrate concentration 5%, heat treatment of enzyme no, reaction time 0 h
  Decomposition efficiency: ratio of each glycoside/aglycon within its isoflavone family: 50.6%
[1]; soymilk, substrate concentration 5%, heat treatment of enzyme no, reaction time 1 h
  Decomposition efficiency: ratio of each glycoside/aglycon within its isoflavone family: 24.6%
[1]; soymilk, substrate concentration 5%, heat treatment of enzyme no, reaction time 3 h
  Decomposition efficiency: ratio of each glycoside/aglycon within its isoflavone family: 7.5%
[1]; soymilk, substrate concentration 5%, heat treatment of enzyme no, reaction time 6 h
  Decomposition efficiency: ratio of each glycoside/aglycon within its isoflavone family: not detected
[1]; soymilk, substrate concentration 5%, heat treatment of enzyme yes, reaction time 6 h
  Decomposition efficiency: ratio of each glycoside/aglycon within its isoflavone family: 43.3%
[1]; soymilk, substrate concentration 10%, heat treatment of enzyme no, reaction time 0 h
  Decomposition efficiency: ratio of each glycoside/aglycon within its isoflavone family: 41.1%
[1]; soymilk, substrate concentration 10%, heat treatment of enzyme no, reaction time 1 h
  Decomposition efficiency: ratio of each glycoside/aglycon within its isoflavone family: 26.4%
[1]; soymilk, substrate concentration 10%, heat treatment of enzyme no, reaction time 3 h
  Decomposition efficiency: ratio of each glycoside/aglycon within its isoflavone family: 10.5%
[1]; soymilk, substrate concentration 10%, heat treatment of enzyme no, reaction time 6 h
  Decomposition efficiency: ratio of each glycoside/aglycon within its isoflavone family: 4.2%
[1]; soymilk, substrate concentration 10%, heat treatment of enzyme yes, reaction time 6 h
  Decomposition efficiency: ratio of each glycoside/aglycon within its isoflavone family: 37.0%
[1]; soymilk, substrate concentration 20%, heat treatment of enzyme no, reaction time 0 h
  Decomposition efficiency: ratio of each glycoside/aglycon within its isoflavone family: 41.3%
[1]; soymilk, substrate concentration 20%, heat treatment of enzyme no, reaction time 1 h
  Decomposition efficiency: ratio of each glycoside/aglycon within its isoflavone family: 27.8%
[1]; soymilk, substrate concentration 20%, heat treatment of enzyme no, reaction time 3 h
  Decomposition efficiency: ratio of each glycoside/aglycon within its isoflavone family: 9.4%
[1]; soymilk, substrate concentration 20%, heat treatment of enzyme no, reaction time 6 h
  Decomposition efficiency: ratio of each glycoside/aglycon within its isoflavone family: 5.9%
[1]; soymilk, substrate concentration 20%, heat treatment of enzyme yes, reaction time 6 h
  Decomposition efficiency: ratio of each glycoside/aglycon within its isoflavone family: 38.8%
[1]; soymilk, substrate concentration 30%, heat treatment of enzyme no, reaction time 0 h
  Decomposition efficiency: ratio of each glycoside/aglycon within its isoflavone family: 43.0%
[1]; soymilk, substrate concentration 30%, heat treatment of enzyme no, reaction time 1 h
  Decomposition efficiency: ratio of each glycoside/aglycon within its isoflavone family: 33.1%
[1]; soymilk, substrate concentration 30%, heat treatment of enzyme no, reaction time 3 h
  Decomposition efficiency: ratio of each glycoside/aglycon within its isoflavone family: 15.9%
[1]; soymilk, substrate concentration 30%, heat treatment of enzyme no, reaction time 6 h
  Decomposition efficiency: ratio of each glycoside/aglycon within its isoflavone family: 7.7%
[1]; soymilk, substrate concentration 30%, heat treatment of enzyme yes, reaction time 6 h
  Decomposition efficiency: ratio of each glycoside/aglycon within its isoflavone family: 37.5%
[2]; Reaction time 0 h
  aglycon: 0
  glucoside: 100
[2]; Reaction time 1 h
  aglycon: 78.3
  glucoside: 21.7
[2]; Reaction time 3 h
  aglycon: 84.5
  glucoside: 15.5
[2]; Reaction time 6 h
  aglycon: 86
  glucoside: 14
